In one experiment the test system is S. aureus 6538 (MSSA). As to the kind of experiment: MIC, agar dilution method in Mueller Hinton agar. In kind it is cell-based. The settings on record: inoculum 10^4 CFU/spot. The procedure: (§1) Representative compounds of the present invention were tested. In vitro activity was determined by minimum inhibitory concentration in a microorganism spectrum by the agar dilution method in Mueller Hinton agar, inoculum=10^4 CFU/spot.

The subject of another experiment is S. pneumoniae 907. In words: MIC, agar dilution method in Mueller Hinton agar. Particulars: inoculum 10^4 CFU/spot. Format: cell-based. The method, then:
as §1
(In general: Agar dilution tests growth on a series of plates holding different concentrations.)

The next experiment has as its system E. faecalis 6. In words: MIC, agar dilution method in Mueller Hinton agar. In kind it is cell-based. Particulars: inoculum 10^4 CFU/spot. The procedure:
as §1

The next experiment relates to S. aureus 270A (MRSA). As to the kind of experiment: MIC, agar dilution method in Mueller Hinton agar. In kind it is cell-based. The settings on record: inoculum 10^4 CFU/spot. The procedure: as §1
The subject of another experiment is S. aureus SPO-19 (MRSA). As to the kind of experiment: MIC against MRSA alone or in combination with imipenem or compound X, agar dilution. The settings on record: inoculum 10^5 CFU/spot; for MIC: Staphylococcus aureus, MRSA. In kind it is cell-based, Staphylococcus aureus. An excerpt:
(§2) For example, the combination with carbapenem antibiotics such as imipenem, or with β-lactamase-inhibitors such as (Z)-(2S,3S,5R)-3-(2-cyanoethenyl)-3-methyl-4,4,7-trioxo-4-thia-1-aza-bicyclo[3.2.0]heptane-2-carboxylic acid (below named “compound X”), enhances the antibacterial activity of compounds I against highly resistant strains of Graem-positive bacterias, e.g. methicillin-resistant strains of Staphylococcus aureus.

In a further experiment the test system is S. aureus 42080 (MRSA). The description is as above. The settings on record: inoculum 10^5 CFU/spot; for MIC: Staphylococcus aureus, MRSA. In kind it is cell-based, Staphylococcus aureus.
Description: as §2

Where [1] appears, read: Staphylococcus aureus, read-out: MIC.
Where [2] appears, read: Streptococcus pneumoniae, read-out: MIC.
Where [3] appears, read: Enterococcus faecalis, read-out: MIC.
The mark [4] stands for this setting: in combination with Compound X (μg/ml, concentration not given).
The mark [5] stands for this setting: in combination with Imipenem (4 μg/ml).

In brackets after ≈: the same amount, converted by molar mass. Like-named read-outs stand apart in the source and are kept apart here.

In general, MIC refers to the lowest concentration that inhibits growth of the organism. Turning to `O=C(CSc1nc2ccccc2s1)N[C@@H]1C(=O)N2C(C(=O)[O-])=C(/C=C/C[n+]3ccccc3)CS[C@H]12` [Example 2, (E)-(6R,7R)-7-[2-(benzothiazol-2-ylsulfanyl)-acetylamino]-8-oxo-3-(3-pyridin-1-ium-1-yl-propenyl)-5-thia-1-aza-bicyclo[4.2.0]oct-2-ene-2-carboxylate], the minimal inhibitory concentration (MIC) with S. aureus 6538 (MSSA) (setting [1]) is under 0.1 µg/mL; in the experiment with S. pneumoniae 907 (setting [2]), under 0.1 µg/mL; in the experiment on E. faecalis 6 (setting [3]) it was 2 µg/mL (≈ 3.81 µM); with S. aureus 270A (MRSA) (setting [1]), 2 µg/mL (≈ 3.81 µM).
As for `Cc1cccc[n+]1C/C=C/C1=C(C(=O)[O-])N2C(=O)[C@@H](NC(=O)CSc3ccc4ccccc4c3)[C@H]2SC1` [Example 7, (E)-(6R,7R)-3-[3-(2-Methyl-pyridin-1-ium-1-yl)-propenyl]-7-[2-(naphthalen-2-ylsulfanyl)-acetylamino]-8-oxo-5-thia-1-aza-bicyclo[4.2.0]oct-2-ene-2-carboxylate], the minimal inhibitory concentration (MIC) with S. aureus 6538 (MSSA) (setting [1]) was under 0.1 µg/mL; in the experiment on S. pneumoniae 907 (setting [2]) it was under 0.1 µg/mL; in the experiment on E. faecalis 6 (setting [3]), 1 µg/mL (≈ 1.88 µM); in the experiment with S. aureus 270A (MRSA) (setting [1]), 2 µg/mL (≈ 3.76 µM).
For `O=C(CSc1ccc2ccccc2c1)N[C@@H]1C(=O)N2C(C(=O)[O-])=C(/C=C/C[n+]3cccc(O)c3)CS[C@H]12` [Example 9, (E)-(6R,7R)-3-[3-(3-Hydroxy-pyridin-1-ium-1-yl)-propenyl]-7-[2-(naphtalen-2-ylsulfanyl)-acetylamino]-8-oxo-5-thia-1-aza-bicyclo[4.2.0]oct-2-ene-2-carboxylate], the MIC is under 0.1 µg/mL with S. aureus 6538 (MSSA), under 0.1 µg/mL with S. pneumoniae 907, 0.5 µg/mL (≈ 0.937 µM) in the experiment on E. faecalis 6 and 2 µg/mL (≈ 3.75 µM) in the experiment with S. aureus 270A (MRSA).
Turning to `O=C(CSc1ccc2ccccc2c1)N[C@@H]1C(=O)N2C(C(=O)[O-])=C(/C=C/C[n+]3cccc4ccccc43)CS[C@H]12` [Example 13, (E)-(6R,7R)-7-[2-(Naphthalen-2-ylsulfanyl)-acetylamino]-8-oxo-3-(3-quinolin-1-ium-1-yl-propenyl)-5-thia-1-aza-bicyclo[4.2.0]oct-2-ene-2-carboxylate], the MIC in the experiment on S. aureus 6538 (MSSA) (setting [1]) is under 0.1 µg/mL; with S. pneumoniae 907 (setting [2]), under 0.1 µg/mL; with E. faecalis 6 (setting [3]), 0.25 µg/mL (≈ 0.44 µM); with S. aureus 270A (MRSA) (setting [1]), 1 µg/mL (≈ 1.76 µM).
As to `C[N+]1(C/C=C/C2=C(C(=O)[O-])N3C(=O)[C@@H](NC(=O)CSc4ccc5ccccc5c4)[C@H]3SC2)CCCC1` [Example 15], the MIC against S. aureus 6538 (MSSA) is under 0.1 µg/mL; against S. pneumoniae 907 it was under 0.1 µg/mL; against E. faecalis 6, 0.5 µg/mL (≈ 0.955 µM); in the experiment on S. aureus 270A (MRSA), 2 µg/mL (≈ 3.82 µM).
On to `C[N+](C)(C/C=C/C1=C(C(=O)[O-])N2C(=O)[C@@H](NC(=O)CSc3ccc4ccccc4c3)[C@H]2SC1)CC(N)=O` [Example 19, (E)-(6R,7R)-3-[3-(Carbamoylmethyl-dimethyl-ammonio)-propenyl]-7-[2-(naphtalen-2-ylsulfanyl)-acetylamino]-8-oxo-5-thia-1-aza-bicyclo[4.2.0]oct-2-ene-2-carboxylate], for which the minimum inhibitory concentration (MIC) was under 0.1 µg/mL in the experiment on S. aureus 6538 (MSSA), under 0.1 µg/mL in the experiment on S. pneumoniae 907, 0.5 µg/mL (≈ 0.925 µM) with E. faecalis 6 and 1 µg/mL (≈ 1.85 µM) against S. aureus 270A (MRSA).
As for `O=C(CSc1ccc2ccccc2c1)N[C@@H]1C(=O)N2C(C(=O)[O-])=C(/C=C/C[n+]3ccccc3)CS[C@H]12` [Example 22, (E)-(6R,7R)-7-[2-(naphthalen-2-ylsulfanyl)-acetylamino]-8-oxo-3-(3-pyridin-1-ium-1-yl-propenyl)-5-thia-1-aza-bicyclo[4.2.0]oct-2-ene-2-carboxylate], the MIC in the experiment with S. aureus 6538 (MSSA) (setting [1]) is under 0.1 µg/mL; in the experiment on S. pneumoniae 907 (setting [2]) it was under 0.1 µg/mL; in the experiment with E. faecalis 6 (setting [3]), 0.5 µg/mL (≈ 0.966 µM); in the experiment with S. aureus 270A (MRSA) (setting [1]), 1 µg/mL (≈ 1.93 µM); in the experiment on S. aureus SPO-19 (MRSA) (compound alone), 4 µg/mL; in the experiment on S. aureus 42080 (MRSA) (compound alone) it was 4 µg/mL. In addition, the “MIC against MRSA” value was determined as 0.5 µg/mL in the experiment with S. aureus SPO-19 (MRSA) (setting [4]), 1 µg/mL in the experiment on S. aureus SPO-19 (MRSA) (setting [5]), 1 µg/mL in the experiment with S. aureus 42080 (MRSA) (setting [4]) and 1 µg/mL in the experiment on S. aureus 42080 (MRSA) (setting [5]).
On to `C[N+](C)(C/C=C/C1=C(C(=O)[O-])N2C(=O)[C@@H](NC(=O)CSc3nc4ccccc4s3)[C@H]2SC1)CCO` [Example 41, (E)-(6R,7R)-3-[3-[Dimethyl-(2-hydroxy-ethyl)-ammonio]-propenyl]-7-[2-(benzothiazol-2-ylsulfanyl)-acetylamino]-8-oxo-5-thias1-aza-bicyclo[4.2.0]oct-2-ene-2-carboxylate], for which the MIC against S. aureus 6538 (MSSA) was under 0.1 µg/mL; in the experiment on S. pneumoniae 907, under 0.1 µg/mL; in the experiment with E. faecalis 6, 1 µg/mL (≈ 1.87 µM); against S. aureus 270A (MRSA) it was 4 µg/mL (≈ 7.48 µM).
`O=C(CSc1ccc2ccccc2c1)N[C@@H]1C(=O)N2C(C(=O)[O-])=C(/C=C/C[N+]34CCN(CC3)CC4)CS[C@H]12` [Example 59, (E)-(6R,7R)-3-[3-(4-Aza-1-azonia-bicyclo[2,2,2]octan-1-yl)-propenyl]-7-[2-(naphthalen-2-ylsulfanyl)-acetylamino]-8-oxo-5-thia-1-aza-bicyclo[4.2.0]oct-2-ene-2-carboxylate]: the minimum inhibitory concentration (MIC) is under 0.1 µg/mL in the experiment with S. aureus 6538 (MSSA) (setting [1]); under 0.1 µg/mL in the experiment on S. pneumoniae 907 (setting [2]); 2 µg/mL (≈ 3.63 µM) in the experiment with E. faecalis 6 (setting [3]); 2 µg/mL (≈ 3.63 µM) in the experiment with S. aureus 270A (MRSA) (setting [1]); 4 µg/mL with S. aureus SPO-19 (MRSA) (compound alone); 4 µg/mL in the experiment on S. aureus 42080 (MRSA) (compound alone). The figures for the “MIC against MRSA” value in the experiment with S. aureus SPO-19 (MRSA) (setting [5]) and with S. aureus 42080 (MRSA) (setting [5]) were 1 µg/mL and 2 µg/mL, respectively.
As for `C[N+](C)(C/C=C/C1=C(C(=O)[O-])N2C(=O)[C@@H](NC(=O)CSc3ccc4ccccc4c3)[C@H]2SC1)CCCO` [Example 62, (E)-(6R,7R)-3-[3-[(3-Hydroxy-propyl)-dimethyl-ammonio]-propenyl]-7-[2-(naphthalen-2-ylsulfanyl)-acetylamino]-8-oxo-5-thia-1-aza-bicyclo[4.2.0]oct-2-ene-2-carboxylate], the MIC in the experiment with S. aureus 6538 (MSSA) (setting [1]) was under 0.1 µg/mL; with S. pneumoniae 907 (setting [2]), under 0.1 µg/mL; in the experiment on E. faecalis 6 (setting [3]) it was 1 µg/mL (≈ 1.85 µM); in the experiment on S. aureus 270A (MRSA) (setting [1]), 2 µg/mL (≈ 3.69 µM); in the experiment on S. aureus SPO-19 (MRSA) (compound alone), 2 µg/mL; in the experiment on S. aureus 42080 (MRSA) (compound alone) it was 4 µg/mL. Also, the results for the “MIC against MRSA” value in the experiment on S. aureus SPO-19 (MRSA) (setting [5]) and in the experiment on S. aureus 42080 (MRSA) (setting [5]) were 1 µg/mL and 2 µg/mL, respectively.
As to `C[N+](C)(C/C=C/C1=C(C(=O)[O-])N2C(=O)[C@@H](NC(=O)CSc3nc4ccccc4s3)[C@H]2SC1)C(CO)CO` [Example 67, (E)-(6R,7R)-7-[2-(Benzothiazol-2-ylsulfanyl)-acetylamino]-8-oxo-3-[3-[(2-hydroxy-1-hydroxymethyl-ethyl)-dimethyl-ammonio]-propenyl]-5-thia-1-aza-bicyclo[4.2.0]oct-2-ene-2-carboxylate], the MIC in the experiment on S. aureus 6538 (MSSA) (setting [1]) is under 0.1 µg/mL; in the experiment on S. pneumoniae 907 (setting [2]), under 0.1 µg/mL; in the experiment with E. faecalis 6 (setting [3]), 1 µg/mL (≈ 1.77 µM); with S. aureus 270A (MRSA) (setting [1]), 2 µg/mL (≈ 3.54 µM).
In the case of `C[N+](C)(C/C=C/C1=C(C(=O)[O-])N2C(=O)[C@@H](NC(=O)CSc3ccc4cc(C(=O)O)ccc4c3)[C@H]2SC1)CC(N)=O` [Example 99], the MIC was under 0.1 µg/mL in the experiment with S. aureus 6538 (MSSA), under 0.1 µg/mL against S. pneumoniae 907, 4 µg/mL (≈ 6.84 µM) against E. faecalis 6 and 2 µg/mL (≈ 3.42 µM) in the experiment on S. aureus 270A (MRSA).
`C[C@@H](O)[C@H]1C(=O)N2C(C(=O)O)=C(SCCN=CN)C[C@H]12` [Imipenem, imipenem, reference compound]: the minimum inhibitory concentration (MIC) in the experiment on S. aureus SPO-19 (MRSA) (compound alone) and in the experiment with S. aureus 42080 (MRSA) (compound alone) was over 16 µg/mL each time.
For “(E)-(6R,7R)-8-Oxo-3-(3-pyridin-1-ium-1-yl-propenyl)-7-[2-(2,4,5-trichlorophenylsulfanyl)-acetylamino]-5-thia-1-aza-bicyclo[4.2.0]oct-2-ene-2-carboxylate [Example 6]”, the minimal inhibitory concentration (MIC) is under 0.1 µg/mL against S. aureus 6538 (MSSA), under 0.1 µg/mL with S. pneumoniae 907, 0.25 µg/mL against E. faecalis 6 and 1 µg/mL against S. aureus 270A (MRSA). Further, the “MIC against MRSA” value with S. aureus SPO-19 (MRSA) (compound alone) was 4 µg/mL; in the experiment with S. aureus SPO-19 (MRSA) (setting [5]), 0.5 µg/mL; in the experiment on S. aureus 42080 (MRSA) (compound alone), 8 µg/mL; with S. aureus 42080 (MRSA) (setting [5]), 1 µg/mL.

These data come from patent US6583133B1, “Propenyl cephalosporin derivatives and process for the manufacture thereof” (Basilea Pharmaceutica AG, priority 1998, dated 2003).
